The target of the experiment is T1, human M4 muscarinic acetylcholine receptor (Homo sapiens, UniProt P08173).
T1 construct: expressed in transfected cells; host or cells: CHO-K1
T1 sequence (P08173 1-479): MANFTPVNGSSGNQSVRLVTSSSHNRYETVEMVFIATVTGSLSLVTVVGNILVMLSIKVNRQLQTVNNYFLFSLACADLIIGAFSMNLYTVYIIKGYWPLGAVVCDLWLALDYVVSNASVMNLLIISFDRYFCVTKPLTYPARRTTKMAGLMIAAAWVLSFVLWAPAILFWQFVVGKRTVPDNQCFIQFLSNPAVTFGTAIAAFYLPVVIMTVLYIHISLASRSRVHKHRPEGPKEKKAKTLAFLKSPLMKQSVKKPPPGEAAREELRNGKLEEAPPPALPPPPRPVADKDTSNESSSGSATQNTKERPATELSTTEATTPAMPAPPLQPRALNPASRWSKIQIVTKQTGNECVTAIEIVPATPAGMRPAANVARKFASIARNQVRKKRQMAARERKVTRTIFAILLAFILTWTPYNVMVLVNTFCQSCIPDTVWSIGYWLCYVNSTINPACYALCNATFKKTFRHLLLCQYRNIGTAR
Put plainly: human FLIPR-based M4 PAM assay (Ca2+ mobilization, CHO-K1 cells with human M4 receptor and Gαqi5). Format: cell-based. As to conditions: acetylcholine at 20% of maximum response, read-out: M4 PAM IP. The procedure, abridged: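 Calcium-mobilization (FLIPR) readout in dye-loaded CHO-K1 cells co-expressing human M4 receptor and Gαqi5. Potentiation measured against acetylcholine at a concentration giving 20% of maximal response, with an optional 70% addition; the reported value is the curve inflection point from a 4-parameter logistic fit.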
With `Cc1cc2c(nc1N1CCC(Oc3cnc4[nH]ncc4c3)CC1)CNC2=O` [Example 206, 2-(4-((1H-pyrazolo[3,4-b]pyridin-5-yl)oxy)piperidin-1-pyrazolo[3,4-b]yl)-3-methyl-6,7-dihydro-5H-pyrrolo[3,4-b]pyridin-5-one], the EC50 came to 589 nM.
Regarding `Cc1cc2c(nc1N1CCC(Oc3cccc(C#N)c3)CC1)[C@@H](CO)N(C)C2=O` [Example 345, (S)-3-((1-(7-(hydroxymethyl)-3,6-dimethyl-5-oxo-6,7-dihydro-5H-pyrrolo[3,4-b]pyridin-2-yl)piperidin-4-yl)oxy)benzonitrile], the EC50 is 23 nM.
Next, `Cc1cc2c(nc1N1CCC(OCC(O)C(F)(F)F)CC1)CNC2=O` (single isomer, unassigned) [Example 181A]: 55 nM; `COc1ncc(OC2CCN(c3nc4c(cc3C)C(=O)NC4)CC2)cn1` [Example 94, 2-(4-((2-methoxypyrimidin-5-yl)oxy)piperidin-1-yl)-3-methyl-6,7-dihydro-5H-pyrrolo[3,4-b]pyridin-5-one]: 1730 nM; `Cc1cc2c(nc1N1CC[C@@H](Oc3ccc4[nH]ncc4c3)[C@@H](F)C1)CNC2=O` [Example 8, 2-((3S,4R)-4-((1H-indazol-5-yl)oxy)-3-fluoropiperidin-1-yl)-3-methyl-6,7-dihydro-5H-pyrrolo[3,4-b]pyridin-5-one]: 14 nM.
Take `Cc1cc2c(nc1N1CC[C@H](Oc3cccc(C#N)c3)[C@@H](F)C1)CNC2=O` [Example 20, 3-(((3S,4S)-3-fluoro-1-(3-methyl-5-oxo-6,7-dihydro-5H-pyrrolo[3,4-b]pyridin-2-yl)piperidin-4-yl)oxy)benzonitrile]: the EC50 turned out to be 83 nM.
Consider `Cc1cc2c(nc1N1CCC(Oc3ccc(F)c(F)c3)CC1)[C@@H](CO)N(C)C2=O` [Example 347, (S)-2-(4-(3,4-difluorophenoxy)piperidin-1-yl)-7-(hydroxymethyl)-3,6-dimethyl-6,7-dihydro-5H-pyrrolo[3,4-b]pyridin-5-one], for which the EC50 worked out at 28 nM.
With `Cc1cc2c(nc1N1CCC(Oc3ccc4[nH]nnc4c3)CC1)CNC2=O` [Example 163A, 2-(4-((1H-benzo[d][1,2,3]triazol-5-yl)oxy)piperidin-1-yl)-3-methyl-6,7-dihydro-5H-pyrrolo[3,4-b]pyridin-5-one], the EC50 is 1140 nM.
Next, `Cc1cc2c(nc1N1CC[C@@H](Oc3cnc4c(c3)COC4)[C@H](F)C1)CNC2=O` [Example 48A, 2-((3R,4R)-4-((5,7-dihydrofuro[3,4-b]pyridin-3-yl)oxy)-3-fluoropiperidin-1-yl)-3-methyl-6,7-dihydro-5H-pyrrolo[3,4-b]pyridin-5-one]: 67 nM.
Next, `Cc1cc2c(nc1N1CCC(OCC(C)C)CC1)CNC2=O` [Example 192, 2-(4-isobutoxypiperidin-1-yl)-3-methyl-6,7-dihydro-5H-pyrrolo[3,4-b]pyridin-5-one]: 310 nM; `Cc1cc2c(nc1N1CCC(Oc3cccc(C#N)c3)CC1)CN(CCO)C2=O` [Example 239, 3-((1-(6-(2-hydroxyethyl)-3-methyl-5-oxo-6,7-dihydro-5H-pyrrolo[3,4-b]pyridin-2-yl)piperidin-4-yl)oxy)benzonitrile]: 36 nM.
For `Cc1cc2c(nc1N1CC[C@@H](Oc3ccc4c(c3)COC4)[C@H](F)C1)[C@H](CO)N(C)C2=O` [Example 279A, (R)-2-((3R,4R)-4-((1,3-dihydro-2-benzofuran-5-yl)oxy)-3-fluoropiperidin-1-yl)-7-(hydroxymethyl)-3,6-dimethyl-6,7-dihydro-5H-pyrrolo[3,4-b]pyridin-5-one], the EC50 stood at 909 nM.
With `C=Cc1cc2c(nc1N1CCC(Oc3ccc(OC)nc3)CC1)CNC2=O` [Example 222, 2-(4-((6-methoxypyridin-3-yl)oxy)piperidin-1-yl)-3-vinyl-6,7-dihydro-5H-pyrrolo[3,4-b]pyridin-5-one], the EC50 turned out to be 50 nM.
As to `Cc1cc2c(nc1N1CCC(Oc3ccc(OCCO)nc3)CC1)CNC2=O` [Example 170, 2-(4-((6-(2-hydroxyethoxy)pyridin-3-yl)oxy)piperidin-1-yl)-3-methyl-6,7-dihydro-5H-pyrrolo[3,4-b]pyridin-5-one], the EC50 is 40 nM.
Next, `Cc1cc2c(nc1N1CCC(Oc3ccc4[nH]nc(Cl)c4c3)CC1)CNC2=O` [Example 313, 2-(4-((3-Chloro-1H-indazol-5-yl)ox)piperidin-1-yl)-3-methyl-6,7-dihydro-5H-pyrrolo[3,4-b]pyridin-5-one]: 30 nM; `COc1ccc(OC2CCN(c3nc4c(cc3C)C(=O)N(C)C4C)CC2)cn1` (centres unmarked) [Example 16, 2-(4-((6-methoxypyridin-3-yl)oxy)piperidin-1-yl)-3,6,7-trimethyl-6,7-dihydro-5H-pyrrolo[3,4-b]pyridin-5-one]: 81 nM.
In the case of `Cc1cc2c(nc1N1CCC(Oc3ccc4[nH]nc(C)c4c3)CC1)CNC2=O` [Example 117, 3-methyl-2-(4-((3-methyl-1H-indazol-5-yl)oxy)piperidin-1-yl)-6,7-dihydro-5H-pyrrolo[3,4-b]pyridin-5-one], the EC50 was determined as 17 nM.
Next, `COc1ccc(O[C@@H]2CCN(c3nc4c(cc3C)C(=O)NC4)C[C@H]2C)cn1` (single isomer, unassigned) [Example 2A]: 86 nM.
Next, `CCc1c(C)c(N2CCC(Oc3ccc(OC)nc3)CC2)nc2c1C(=O)NC2` [Example 229A, 4-ethyl-2-(4-((6-methoxypyridin-3-yl)oxy)piperidin-1-yl)-3-methyl-6,7-dihydro-5H-pyrrolo[3,4-b]pyridin-5-one]: 600 nM; `CCN1Cc2nc(N3CCC(Oc4ccc5c(c4)COC5)CC3)c(C)cc2C1=O` [Example 244A, 2-(4-((1,3-dihydro-2-benzofuran-5-yl)oxy)piperidin-1-yl)-6-ethyl-3-methyl-6,7-dihydro-5H-pyrrolo[3,4-b]pyridin-5-one]: 28 nM.
Next, `Cc1cc2c(nc1N1CCC(Oc3cnc4c(c3)CCC4)CC1)CNC2=O` [Example 59, 2-(4-((6,7-dihydro-5H-cyclopenta[b]pyridin-3-yl)oxy)piperidin-1-yl)-3-methyl-6,7-dihydro-5H-pyrrolo[3,4-b]pyridin-5-one]: 123 nM; `Cc1cc2c(nc1N1CCC(Oc3ccc4c(c3)C(=O)OC4)CC1)CNC2=O` [Example 110, 3-methyl-2-(4-((3-oxo-1,3-dihydro-2-benzofuran-5-yl)oxy)piperidin-1-yl)-6,7-dihydro-5H-pyrrolo[3,4-b]pyridin-5-one]: 39 nM.
For the compound `Cc1c(N2CCC(Oc3ccc4c(c3)OCC4)CC2)nc2c(c1C)C(=O)N(CCO)C2` [Example 266A, 2-(4-((2,3-dihydrobenzofuran-6-yl)oxy)piperidin-1-yl)-6-(2-hydroxyethyl)-3,4-dimethyl-6,7-dihydro-5H-pyrrolo[3,4-b]pyridin-5-one], the EC50 is 44 nM.
For `CCc1cc2c(nc1N1CC[C@@H](Oc3ccc4c(cnn4C)c3)[C@@H](F)C1)CNC2=O` [Example 5A, 3-ethyl-2-((3S,4R)-3-fluoro-4-((1-methyl-1H-indazol-5-yl)oxy)piperidin-1-yl)-6,7-dihydro-5H-pyrrolo[3,4-b]pyridin-5-one], the EC50 came to 121 nM.
Next, `Cc1cc2c(nc1N1CC[C@H](Oc3ccc4c(cnn4C)c3)[C@H](F)C1)CNC2=O` [Example 23, 2-((3R,4S)-3-fluoro-4-((1-methyl-1H-indazol-5-yl)oxy)piperidin-1-yl)-3-methyl-6,7-dihydro-5H-pyrrolo[3,4-b]pyridin-5-one]: 70 nM; `Cc1cc2c(nc1N1CCC(Oc3ccc([C@H](C)O)cc3)CC1)CNC2=O` (single isomer, unassigned) [Example 150B]: 197 nM; `Cc1cc2c(nc1N1CCC(Oc3ccc(O[C@H](C)CO)nc3)CC1)CNC2=O` (single isomer, unassigned) [Example 141A]: 82 nM.
Next, `CCc1cc2c(nc1N1CCC(Oc3cccnc3)CC1)CNC2=O` [Example 201, 3-ethyl-2-(4-(pyridin-3-yloxy)piperidin-1-yl)-6,7-dihydro-5H-pyrrolo[3,4-b]pyridin-5-one]: 230 nM; `Cc1cc2c(nc1N1CCC(Oc3ccc4[nH]nc(C#N)c4c3)CC1)CNC2=O` [Example 316, 5-((1-(3-Methyl-5-oxo-6,7-dihydro-5H-pyrrolo[3,4-b]pyridin-2-yl)piperidin-4-yl)oxy)-1H-indazole-3-carbonitrile]: 198 nM.
In the case of `Cc1cc2c(nc1N1CCC(Oc3ccc4c(c3)COCC4)CC1)[C@@H](CO)N(C)C2=O` [Example 349, (S)-7-(hydroxymethyl)-2-(4-(isochroman-7-yloxy)piperidin-1-yl)-3,6-dimethyl-6,7-dihydro-5H-pyrrolo[3,4-b]pyridin-5-one], the EC50 stood at 22 nM.
For the compound `Cc1cc2c(nc1N1CCC(OCC3CCC3)CC1)CNC2=O` [Example 172, 2-(4-(cyclobutylmethoxy)piperidin-1-yl)-3-methyl-6,7-dihydro-5H-pyrrolo[3,4-b]pyridin-5-one], the EC50 came out at 125 nM.
As to `Cc1cc2c(nc1N1CCC(OCC3(C#N)CC3)CC1)CNC2=O` [Example 36, 1-(((1-(3-methyl-5-oxo-6,7-dihydro-5H-pyrrolo[3,4-b]pyridin-2-yl)piperidin-4-yl)oxy)methyl)cyclo-propane-1-carbonitrile], the EC50 was determined as 302 nM.

The values are drawn from patent publication US10329289B2, “6,7-dihydro-5H-pyrrolo[3,4-B]pyridin-5-one allosteric modulators of the M4 muscarinic acetylcholine receptor” (Merck Sharp & Dohme Corp., priority 2015, dated 2019).
